# Measurements: patent US20250332178A1, “METHODS OF TREATING MYCOBACTERIAL INFECTIONS USING TETRACYCLINE COMPOUNDS” (priority 2018, published 2025)
# Where two headings read alike, the source gives them in different places.
# What was measured:
# [1] = system: Mycobacterium fortuitum; assay: MIC by broth microdilution in CAMHB, clinical isolates; format: cell-based; settings: Mycolicibacterium fortuitum; for MIC: read-out: MIC
# [2] = system: Mycobacterium chelonae; assay: as above; format: cell-based; settings: 22 clinical isolates; read-out: MIC50
# [3] = system: Mycobacterium abscessus; assay: as above; format: cell-based; settings: Mycobacteroides abscessus; for MIC: read-out: MIC
# [4] = system: Bacille Calmette Guerin (BCG); format: cell-based, Mycobacterium bovis; settings: disk: 15 μg of omadacycline
# [5] = system: rapid-growing mycobacteria (RGM) isolates; assay: MIC (CLSI broth dilution), all RGM isolates; format: cell-based, nontuberculous mycobacteria; settings: RGM clinical isolates, all species
smiles,measurement,setting,value
"CN(C)c1cc(CNCC(C)(C)C)c(O)c2c1C[C@H]1C[C@H]3C(N(C)C)C(O)=C(C(N)=O)C(=O)[C@@]3(O)C(O)=C1C2=O (stereo partly drawn) [Omadacycline, (4aS,5aR,12aS)-4,7-bis(dimethylamino)-3,10,12,12a-tetrahydroxy-9-((neopentylamino)methyl)-1,11-dioxo-1,4,4a,5,5a,6,11,12a-octahydrotetracene-2-carboxamide]",MIC,"[1]; isolate No. 1, 3349",0.25 µg/mL
same,MIC,"[1]; isolate No. 2, 3499",0.03 µg/mL
same,MIC,"[1]; isolate No. 3, 2797",0.125 µg/mL
same,MIC,"[1]; isolate No. 4, 32",0.25 µg/mL
same,MIC,"[1]; isolate No. 5, 33",0.125 µg/mL
same,MIC,"[1]; isolate No. 6, 3489",0.125 µg/mL
same,MIC,"[1]; isolate No. 7, 3491",0.125 µg/mL
same,MIC,"[1]; isolate No. 8, 54",0.06 µg/mL
same,MIC,"[1]; isolate No. 9, 38",0.125 µg/mL
same,MIC,"[1]; isolate No. 10, 36",0.125 µg/mL
same,MIC,"[1]; isolate No. 11, 3480",0.25 µg/mL
same,MIC,"[1]; isolate No. 12, 3126",0.125 µg/mL
same,MIC,"[1]; isolate No. 13, 3579",0.25 µg/mL
same,MIC,"[1]; isolate No. 14, 7484",0.5 µg/mL
same,MIC,"[1]; isolate No. 15, 3488",0.5 µg/mL
same,MIC,"[1]; isolate No. 16, 3276",0.25 µg/mL
same,MIC,"[1]; isolate No. 17, 3442",1 µg/mL
same,MIC,"[1]; isolate No. 18, 3316",0.125 µg/mL
same,MIC,"[1]; isolate No. 19, 3490",0.25 µg/mL
same,MIC,"[1]; isolate No. 20, 2491",1 µg/mL
same,MIC50,"[1]; 20 clinical isolates, read-out: MIC50",0.125 µg/mL
same,MIC90,"[1]; 20 clinical isolates, read-out: MIC90",0.5 µg/mL
same,MIC50,[2],0.125 µg/mL
same,MIC,"[3]; isolate No. 1, BB2",1 µg/mL
same,MIC,"[3]; isolate No. 2, BB4",4 µg/mL
same,MIC,"[3]; isolate No. 3, 5922",0.125 µg/mL
same,MIC,"[3]; isolate No. 4, BB3",0.06 µg/mL
same,MIC,"[3]; isolate No. 5, BB6",0.06 µg/mL
same,MIC,"[3]; isolate No. 6, 5908",1 µg/mL
same,MIC,"[3]; isolate No. 7, BB7",2 µg/mL
same,MIC,"[3]; isolate No. 8, 6031",0.25 µg/mL
same,MIC,"[3]; isolate No. 9, 5785",0.25 µg/mL
same,MIC,"[3]; isolate No. 10, BB8",1 µg/mL
same,MIC,"[3]; isolate No. 11, 6111",1 µg/mL
same,MIC,"[3]; isolate No. 12, 6005",1 µg/mL
same,MIC,"[3]; isolate No. 13, 5605",1 µg/mL
same,MIC,"[3]; isolate No. 14, 5931",1 µg/mL
same,MIC,"[3]; isolate No. 15, BB1",2 µg/mL
same,MIC,"[3]; isolate No. 16, BB5",2 µg/mL
same,MIC,"[3]; isolate No. 17, 5812",2 µg/mL
same,MIC,"[3]; isolate No. 18, 5901",1 µg/mL
same,MIC,"[3]; isolate No. 19, 5960",8 µg/mL
same,MIC,"[3]; isolate No. 20, 6142",1 µg/mL
same,MIC,"[3]; isolate No. 21, 5922",0.5 µg/mL
same,MIC,"[3]; isolate No. 22, LT 949",1 µg/mL
same,MIC,"[3]; isolate No. 23, 6025",1 µg/mL
same,MIC,"[3]; isolate No. 24, 6153",2 µg/mL
same,MIC50,"[3]; 24 clinical isolates (tigecycline: subset N=14), read-out: MIC50",1 µg/mL
same,MIC90,"[3]; 24 clinical isolates (tigecycline: subset N=14), read-out: MIC90",2 µg/mL
same,Results/Observations (growth),[4],Markedly decreased growth around
same,MIC50,[5]; read-out: MIC50,0.25 µg/mL
same,MIC90,[5]; read-out: MIC90,0.5 µg/mL
